In brackets after ≈: the same amount, converted by molar mass. Activity calls are given as the source filed them. The rule behind the calls is not given here. Positions of bridges follow the written chain, without caps; N, C: chain ends. Residues, ends and D or L forms follow the SMILES beside them.
Columns and labels:
Escherichia coli [1] = experiment: Antibacterial activity against Escherichia coli ATCC 25922 assessed as reduction in bacterial survival rate; format: functional; details: for LC50: Escherichia coli, ATCC 25922, read-out: LD50 (the source's name)
Staphylococcus aureus [2] = experiment: Antibacterial activity against Staphylococcus aureus ATCC 25923 assessed as reduction in bacterial survival rate; format: functional; details: for LC50: Staphylococcus aureus, ATCC 25923, read-out: LD50 (the source's name)
Staphylococcus aureus [3] = experiment: Antibacterial activity against Staphylococcus aureus ATCC 25923 assessed as reduction in bacterial survival rate at 25 ug/ml in presence of 10% mouse serum; format: functional, organism-based
[4] = Induction of hemolysis in mouse erythrocytes up to 100 ug/ml incubated at 37 degC for 15 mins; format: cell-based, Erythrocyte; details: read-out: Activity
Escherichia coli [5] = experiment: Antibacterial activity against Escherichia coli ATCC 25922 assessed as reduction in bacterial survival rate 12.5 ug/ml in presence of 150 mM NaCl; format: functional, organism-based
Escherichia coli [6] = experiment: Antibacterial activity against Escherichia coli ATCC 25922 assessed as reduction in bacterial survival rate at 25 ug/ml in presence of 10% mouse serum; format: functional, organism-based
[7] = Stability in presence of 400 U/L trypsin assessed as compound degradation at 100 ug/ml after 4 to 12 hrs by HPLC and LC-MS method; format: physicochemical; details: isolated protein
[8] = Binding affinity to Rd mutant containing Escherichia coli F583 lipid A assessed as equilibrium dissociation constant in presence of 75 mM NaCl by bilayer interferometry
Escherichia coli [9] = experiment: Antibacterial activity against Escherichia coli ATCC 25922 assessed as reduction in bacterial survival rate at 12.5 ug/ml in presence of >75 mM NaCl; format: functional, organism-based
Escherichia coli [10] = experiment: Induction of inner membrane disintegration in Escherichia coli ML35 ATCC 43827 at 1.6 to 6.3 ug/ml by ONPG hydrolysis assay; format: functional, organism-based
[11] = Binding affinity to Staphylococcus aureus lipoteichoic acid assessed as equilibrium dissociation constant by bilayer interferometry
[12] = Binding affinity to Rd mutant containing Escherichia coli F583 lipid A assessed as equilibrium dissociation constant by bilayer interferometry
Escherichia coli [13] = experiment: Induction of outer membrane disintegration in Escherichia coli ATCC 25922 at 6.25 ug/ml by NPN uptake assay; format: functional, organism-based
Escherichia coli [14] = experiment: Induction of inner membrane disintegration in Escherichia coli ML35 ATCC 43827 at 0.78 to 1.6 ug/ml by ONPG hydrolysis assay; format: functional, organism-based
[15] = Induction of hemolysis in mouse erythrocytes at 12.5 and 25 ug/ml incubated at 37 degC for 15 mins; format: cell-based; details: erythrocyte, 0.25 h

Compound | LD90 (Escherichia coli [1]) [µg/mL] | LC50 (Escherichia coli [1]) [µg/mL] | LD90 (Staphylococcus aureus [2]) [µg/mL] | LC50 (Staphylococcus aureus [2]) [µg/mL] | Activity (Staphylococcus aureus [3]) | hemolysis at 0.25 h [4] [%] | Activity (Escherichia coli [5]) | Activity (Escherichia coli [6]) | Stability [7] | Kd [8] [nM] | Activity (Escherichia coli [9]) | Activity (Escherichia coli [10]) | Kd [11] [nM] | Kd [12] [nM] | Activity (Escherichia coli [13]) | Activity (Escherichia coli [14]) | Activity [15]
CC[C@H](C)[C@@H]1NC(=O)[C@H](CCC(=O)O)NC(=O)[C@@H]2CSSC[C@@H]3NC(=O)[C@H](Cc4ccc(O)cc4)NC(=O)[C@@H](NC(=O)[C@@H](NC(=O)[C@H](C)N)[C@@H](C)O)CSSC[C@@H](C(=O)N[C@@H](CCCNC(=N)N)C(=O)O)NC(=O)[C@H](CSSC[C@H](NC(=O)[C@H](CCCNC(=N)N)NC(=O)CNC(=O)[C@H](CCCNC(=N)N)NC(=O)[C@H](CCCNC(=N)N)NC3=O)C(=O)N[C@@H](C)C(=O)N[C@@H]([C@@H](C)O)C(=O)N[C@@H](CCCNC(=N)N)C(=O)N[C@@H](CCC(=O)O)C(=O)N[C@@H](CO)C(=O)N[C@@H](CC(C)C)C(=O)N[C@@H](CO)C(=O)NCC(=O)N[C@@H](C(C)C)C(=O)N2)NC(=O)[C@H](CC(C)C)NC(=O)[C@H](CCCNC(=N)N)NC(=O)[C@H](Cc2ccc(O)cc2)NC(=O)[C@H](CC(C)C)NC(=O)[C@H](CCCNC(=N)N)NC(=O)CNC(=O)[C@H](CO)NC1=O (H-ATCYCRRGRCATRESLSGVCEISGRLYRLCCR-OH; disulfide 3-31, 5-20, 10-30) | 5 | 1.4 (≈ 0.385 µM) | 2.8 | 1.3 (≈ 0.357 µM) |  |  |  |  |  |  |  |  |  |  |  |  | 
CC[C@H](C)[C@@H]1NC(=O)[C@H](CCCNC(=N)N)NC(=O)[C@@H]2CSSC[C@@H]3NC(=O)[C@H](Cc4ccc(O)cc4)NC(=O)[C@@H](NC(=O)[C@@H](NC(=O)[C@H](C)N)[C@@H](C)O)CSSC[C@@H](C(=O)N[C@@H](CCCNC(=N)N)C(=O)O)NC(=O)[C@H](CSSC[C@H](NC(=O)[C@H](CCCNC(=N)N)NC(=O)CNC(=O)[C@H](CCCNC(=N)N)NC(=O)[C@H](CCCNC(=N)N)NC3=O)C(=O)N[C@@H](C)C(=O)N[C@@H]([C@@H](C)O)C(=O)N[C@@H](CCCNC(=N)N)C(=O)N[C@@H](CCC(=O)O)C(=O)N[C@@H](CO)C(=O)N[C@@H](CC(C)C)C(=O)N[C@@H](CO)C(=O)NCC(=O)N[C@@H](C(C)C)C(=O)N2)NC(=O)[C@H](CC(C)C)NC(=O)[C@H](CCCNC(=N)N)NC(=O)[C@H](Cc2ccc(O)cc2)NC(=O)[C@H](CC(C)C)NC(=O)[C@H](CCCNC(=N)N)NC(=O)CNC(=O)[C@H](CO)NC1=O (H-ATCYCRRGRCATRESLSGVCRISGRLYRLCCR-OH; disulfide 3-31, 5-20, 10-30) | 1.8 | 0.8 (≈ 0.218 µM) | 1.4 | < 0.39 | Active | ≤ 1 | Active | Active | Stable | 48 |  |  |  |  |  |  | 
CC[C@H](C)[C@@H]1NC(=O)[C@H](CCC(=O)O)NC(=O)[C@@H]2CSSC[C@@H]3NC(=O)[C@H](Cc4ccc(O)cc4)NC(=O)[C@@H](NC(=O)[C@@H](NC(=O)[C@H](C)N)[C@@H](C)O)CSSC[C@@H](C(=O)N[C@@H](CCCNC(=N)N)C(=O)O)NC(=O)[C@H](CSSC[C@H](NC(=O)[C@H](CCCNC(=N)N)NC(=O)CNC(=O)[C@H]([C@@H](C)O)NC(=O)[C@H](CCCNC(=N)N)NC3=O)C(=O)N[C@@H](C)C(=O)N[C@@H]([C@@H](C)O)C(=O)N[C@@H](CCCNC(=N)N)C(=O)N[C@@H](CCC(=O)O)C(=O)N[C@@H](CO)C(=O)N[C@@H](CC(C)C)C(=O)N[C@@H](CO)C(=O)NCC(=O)N[C@@H](C(C)C)C(=O)N2)NC(=O)[C@H](CC(C)C)NC(=O)[C@H](CCCNC(=N)N)NC(=O)[C@H](Cc2ccc(O)cc2)NC(=O)[C@H](CC(C)C)NC(=O)[C@H](CCCNC(=N)N)NC(=O)CNC(=O)[C@H](CCCNC(=N)N)NC1=O (H-ATCYCRTGRCATRESLSGVCEIRGRLYRLCCR-OH; disulfide 3-31, 5-20, 10-30) | 6 | 1.7 (≈ 0.466 µM) | 3 | 1.5 (≈ 0.411 µM) |  |  |  |  |  |  |  |  |  |  |  |  | 
CC[C@H](C)[C@@H]1NC(=O)[C@H](CCC(=O)O)NC(=O)[C@@H]2CSSC[C@@H]3NC(=O)[C@H](Cc4ccc(O)cc4)NC(=O)[C@@H](NC(=O)[C@@H](NC(=O)[C@H](C)N)[C@@H](C)O)CSSC[C@@H](C(=O)N[C@@H](CCCNC(=N)N)C(=O)O)NC(=O)[C@H](CSSC[C@H](NC(=O)[C@H](CCCNC(=N)N)NC(=O)CNC(=O)[C@H]([C@@H](C)O)NC(=O)[C@H](CCCNC(=N)N)NC3=O)C(=O)N[C@@H](C)C(=O)N[C@@H]([C@@H](C)O)C(=O)N[C@@H](CCCNC(=N)N)C(=O)N[C@@H](CCC(=O)O)C(=O)N[C@@H](CO)C(=O)N[C@@H](CC(C)C)C(=O)N[C@@H](CO)C(=O)NCC(=O)N[C@@H](C(C)C)C(=O)N2)NC(=O)[C@H](CC(C)C)NC(=O)[C@H](CCCNC(=N)N)NC(=O)[C@H](Cc2ccc(O)cc2)NC(=O)[C@H](CC(C)C)NC(=O)[C@H](CCCNC(=N)N)NC(=O)CNC(=O)[C@H](CO)NC1=O (H-ATCYCRTGRCATRESLSGVCEISGRLYRLCCR-OH; disulfide 3-31, 5-20, 10-30) | 6.6 | 3.3 (≈ 0.921 µM) | 3.4 | 1.9 (≈ 0.53 µM) | inactive |  |  | inactive |  | 210 | inactive | Active | 220 | 120 | Active |  | 
CC[C@H](C)[C@@H]1NC(=O)[C@H](CCC(=O)O)NC(=O)[C@@H]2CSSC[C@@H]3NC(=O)[C@H](Cc4ccc(O)cc4)NC(=O)[C@@H](NC(=O)[C@@H](NC(=O)[C@H](C)N)[C@@H](C)O)CSSC[C@@H](C(=O)N[C@@H](CCCNC(=N)N)C(=O)O)NC(=O)[C@H](CSSC[C@H](NC(=O)[C@H](CCCNC(=N)N)NC(=O)CNC(=O)[C@H]([C@@H](C)O)NC(=O)[C@H](CCCNC(=N)N)NC3=O)C(=O)N[C@@H](C)C(=O)N[C@@H]([C@@H](C)O)C(=O)N[C@@H](CCCNC(=N)N)C(=O)N[C@@H](CCC(=O)O)C(=O)N[C@@H](CO)C(=O)N[C@@H](CC(C)C)C(=O)N[C@@H](CO)C(=O)NCC(=O)N[C@@H](C(C)C)C(=O)N2)NC(=O)[C@H](CC(C)C)NC(=O)[C@H](CCCNC(=N)N)NC(=O)[C@H](Cc2ccc(O)cc2)NC(=O)[C@H](CC(C)C)NC(=O)[C@H](CCCNC(=N)N)NC(=O)[C@H](CCCNC(=N)N)NC(=O)[C@H](CO)NC1=O (H-ATCYCRTGRCATRESLSGVCEISRRLYRLCCR-OH; disulfide 3-31, 5-20, 10-30) | 5.8 | 1.6 (≈ 0.435 µM) | 3.1 | 1.5 (≈ 0.407 µM) |  |  |  |  |  |  |  |  |  |  |  |  | 
CC[C@H](C)[C@@H]1NC(=O)[C@H](CCCNC(=N)N)NC(=O)[C@@H]2CSSC[C@@H]3NC(=O)[C@H](Cc4ccc(O)cc4)NC(=O)[C@@H](NC(=O)[C@@H](NC(=O)[C@H](C)N)[C@@H](C)O)CSSC[C@@H](C(=O)N[C@@H](CCCNC(=N)N)C(=O)O)NC(=O)[C@H](CSSC[C@H](NC(=O)[C@H](CCCNC(=N)N)NC(=O)CNC(=O)[C@H]([C@@H](C)O)NC(=O)[C@H](CCCNC(=N)N)NC3=O)C(=O)N[C@@H](C)C(=O)N[C@@H]([C@@H](C)O)C(=O)N[C@@H](CCCNC(=N)N)C(=O)N[C@@H](CCC(=O)O)C(=O)N[C@@H](CO)C(=O)N[C@@H](CC(C)C)C(=O)N[C@@H](CO)C(=O)NCC(=O)N[C@@H](C(C)C)C(=O)N2)NC(=O)[C@H](CC(C)C)NC(=O)[C@H](CCCNC(=N)N)NC(=O)[C@H](Cc2ccc(O)cc2)NC(=O)[C@H](CC(C)C)NC(=O)[C@H](CCCNC(=N)N)NC(=O)CNC(=O)[C@H](CO)NC1=O (H-ATCYCRTGRCATRESLSGVCRISGRLYRLCCR-OH; disulfide 3-31, 5-20, 10-30) | 3.1 | 1.3 (≈ 0.36 µM) | 2.2 | 0.6 (≈ 0.166 µM) |  |  |  |  |  |  |  |  | 85 | 33 | Active | Active | 
CC[C@H](C)[C@H](NC(=O)CN)C(=O)NCC(=O)N[C@@H](C)C(=O)N[C@H](C(=O)N[C@@H](CC(C)C)C(=O)N[C@@H](CCCCN)C(=O)N[C@H](C(=O)N[C@@H](CC(C)C)C(=O)N[C@H](C(=O)N[C@H](C(=O)NCC(=O)N[C@@H](CC(C)C)C(=O)N1CCC[C@H]1C(=O)N[C@@H](C)C(=O)N[C@@H](CC(C)C)C(=O)N[C@H](C(=O)N[C@@H](CO)C(=O)N[C@@H](Cc1c[nH]c2ccccc12)C(=O)N[C@H](C(=O)N[C@@H](CCCCN)C(=O)N[C@@H](CCCNC(=N)N)C(=O)N[C@@H](CCCCN)C(=O)N[C@@H](CCCNC(=N)N)C(=O)N[C@@H](CCC(N)=O)C(=O)N[C@@H](CCC(N)=O)C(N)=O)[C@@H](C)CC)[C@@H](C)CC)[C@@H](C)O)[C@@H](C)O)C(C)C)C(C)C [MELITTIN] |  |  |  |  |  |  |  |  |  |  |  |  |  |  |  |  | Toxic

Reference: ChEMBL document CHEMBL3414515, “Design of a potent antibiotic peptide based on the active region of human defensin 5” (J Med Chem, 2015)
